Earlier results in patent US9101541B2 (Cadila Healthcare Limited, priority 2010, dated 2015).

What was measured:
[1] = oral administration

- time to maximum blood concentrations after dosing [1]: 0.5 to 2.3 h
- oil and water solubility: poor oil and water solubility
- BCS class (Pharmaceutical Research, Vo. 22, No. 1, January 2005, Chi-Yuan Wu et al.): BCS Class 2
Compound: CO[C@H]1C[C@@H]2CC[C@@H](C)[C@@](O)(O2)C(=O)C(=O)N2CCCC[C@H]2C(=O)O[C@H]([C@H](C)C[C@@H]2CC[C@@H](O)[C@H](OC)C2)CC(=O)[C@H](C)/C=C(\C)[C@@H](O)[C@@H](OC)C(=O)[C@H](C)C[C@H](C)/C=C/C=C/C=C/1C [Sirolimus, (3S,6R,7E,9R,10R,12R,14S,15E,17E,19E,21S,23S,26R,27R,34aS)-9,10,12,13,14,21,22,23,24,25,26,27,32,33,34,34a-hexadecahydro-9,27-dihydroxy-3-[(1R)-2-[(1S,3R,4R)-4-hydroxy-3-methoxycyclohexyl]-1-methylethyl]-10,21-dimethoxy-6,8,12,14,20,26-hexamethyl-23,27-epoxy-3H-pyrido[2,1-c][1,4]oxaazacyclohentriacontine-1,5,11,28,29 (4H,6H,31H)-pentone]
